Source: patent US20110263507A1 (priority 2007, published 2011)
Read-outs that look alike come from different tables or passages of the source. Where a SMILES comes first, the peptide text is derived from it. [ ]: non-standard residue; d: D form. Ala(indol-4-yl) = N[C@@H](Cc1cccc2[nH]ccc12)C(=O)O; d1Nal = N[C@H](Cc1cccc2ccccc12)C(=O)O; NMeR = CN[C@@H](CCCNC(=N)N)C(=O)O; Tle = CC(C)(C)[C@H](N)C(=O)O

Key:
hNTS2 = target: T1, hNTS2 (Homo sapiens, UniProt O95665); assay: Radioligand competition binding with [3H]NT, membranes of CHO-K1 cells expressing hNTS2
T1 construct: expressed in transfected cells; host or cells: CHO-K1
T1 sequence (O95665 whole entry): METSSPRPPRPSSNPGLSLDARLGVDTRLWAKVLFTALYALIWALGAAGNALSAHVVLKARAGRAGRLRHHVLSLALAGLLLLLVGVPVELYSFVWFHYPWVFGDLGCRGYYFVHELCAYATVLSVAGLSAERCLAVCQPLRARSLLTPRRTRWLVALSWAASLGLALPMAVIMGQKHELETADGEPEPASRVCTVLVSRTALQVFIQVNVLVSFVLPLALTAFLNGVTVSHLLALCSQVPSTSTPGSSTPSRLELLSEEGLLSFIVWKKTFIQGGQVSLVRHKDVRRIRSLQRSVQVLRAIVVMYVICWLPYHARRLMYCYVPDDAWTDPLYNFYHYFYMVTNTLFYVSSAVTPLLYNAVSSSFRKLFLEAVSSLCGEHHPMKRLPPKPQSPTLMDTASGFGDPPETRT
Description: CHO-K1 cells that had been stably transfected separately with the hNTS1 or hNTS2 genes were cultured in 150 mm (500 cm^2) Petri plates with 35 ml of Dulbecco's modified Eagle's medium containing 100 μM minimal essential medium nonessential amino acids (Life Technologies, Inc.) supplemented with 5% (v/v) FetalClone II bovine serum product (Hyclone Labs, Logan, Utah). CHO cells (subculture 7-15) were harvested at confluence by aspiration of the medium, followed by a wash with ice-cold 50 mM Tris-HCl buffer, pH=7.4, which was discarded, resuspension in 5-15 ml of Tris-HCl, scraping the cells with a plastic spatula into a centrifuge tube, and collection of cells by centrifugation at 300×g for 5 min at 4° C., in a GPR centrifuge (Beckman Instruments, Fullerton, Calif.). The cellular pellet (in Tris-HCl buffer) was stored at −180° C. until the radioligand binding was performed.
Incubation was at 20° C. for 40 min. The assay was routinely terminated by addition of ice-cold 0.9% NaCl (5×1.5 ml), followed by rapid filtration through a GF/B filter strip that had been pretreated with 0.2% or 2% polyethyleneimine. […] Data were analyzed using the LIGAND program.
Curves were generated using the LIGAND program. […] Data are the means of duplicate determinations and are representative results from one of at least three independent experiments.

[1] = Direct injection into the brains of rats; assay type: in vivo; settings: direct injection into brain, unpublished observations
From the text: (See Cusack, B. et al. BRAIN RES 856: 48-54 (2000) and Tyler-McMahon, B. M. et al. EUR J PHARMACOL 390: 107-11 (2000)).

hNTS1 = target: T2, hNTS1 (Homo sapiens, UniProt P30989); assay: Radioligand competition binding with [3H]NT, membranes of CHO-K1 cells expressing hNTS1; settings: for hNTS1 Selectivity: Table 2, hNTS1 over hNTS2
T2 construct: expressed in transfected cells; host or cells: CHO-K1
T2 sequence (P30989 whole entry): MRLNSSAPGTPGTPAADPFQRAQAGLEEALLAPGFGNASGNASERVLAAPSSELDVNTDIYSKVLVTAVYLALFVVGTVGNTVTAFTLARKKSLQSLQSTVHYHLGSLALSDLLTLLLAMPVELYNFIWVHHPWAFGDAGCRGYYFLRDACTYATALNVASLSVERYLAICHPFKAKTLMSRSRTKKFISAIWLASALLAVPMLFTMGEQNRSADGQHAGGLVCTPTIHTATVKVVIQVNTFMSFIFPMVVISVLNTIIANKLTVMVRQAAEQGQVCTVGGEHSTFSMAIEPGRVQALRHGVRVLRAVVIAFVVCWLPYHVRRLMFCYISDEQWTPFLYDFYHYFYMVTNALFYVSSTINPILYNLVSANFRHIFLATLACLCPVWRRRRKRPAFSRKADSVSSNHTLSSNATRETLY
Description: CHO-K1 cells that had been stably transfected separately with the hNTS1 or hNTS2 genes were cultured in 150 mm (500 cm^2) Petri plates with 35 ml of Dulbecco's modified Eagle's medium containing 100 μM minimal essential medium nonessential amino acids (Life Technologies, Inc.) supplemented with 5% (v/v) FetalClone II bovine serum product (Hyclone Labs, Logan, Utah). […] The cellular pellet (in Tris-HCl buffer) was stored at […] until the radioligand binding was performed.
For use in binding assays, crude membrane preparations were prepared by centrifugation of the cellular pellet at 35,600×g for 10 min. The supernatant was decanted and discarded, and the cellular pellet was resuspended in 1 ml of Tris-HCl buffer followed by homogenization with a Brinkmann Polytron at setting 5.5 for 15 s. Centrifugation was repeated as above, the supernatant was decanted and discarded, and the cellular pellet was resuspended in 1 ml of Tris-HCl buffer followed by homogenization. Centrifugation was repeated a third time, the supernatant was discarded, and the final cellular pellet was suspended in 0.5-2.5 ml of Tris-HCl buffer. Protein concentration of the membrane preparation was estimated by the method of Lowry et al. using bovine serum albumin as a standard.
Incubation was at 20° C. for 40 min. The assay was routinely terminated by addition of ice-cold 0.9% NaCl (5×1.5 ml), followed by rapid filtration through a GF/B filter strip that had been pretreated with 0.2% or 2% polyethyleneimine. Details of binding assays have been described previously. […] Data were analyzed using the LIGAND program.

[2] = Degradation of peptides in plasma in vitro (stability to plasma peptidases); assay type: in vitro ADME; settings: peptide incubated with human (FIG. 4) or rat plasma; for half-life: read-out: half-lives in plasma
Description: All peptides that were stable (half-lives >100 h), such as NT66, NT67, NT69, NT72, and NT73, have either a blocked amino group (N-Methyl-Arg) or a D-amino in the 8 or 9 position (Table 4).

6-keto-prostaglandin F1α = assay: Plasma prostaglandin levels after injection; assay type: in vivo; settings: mice, 30 min after injection; NT69 2 mg/kg, NT79 20 mg/kg intraperitoneally; compared to saline; surrogate marker for hypotension
Description: Blood samples from 3 mice were pooled for each condition.
Therefore, in preliminary studies, levels of 6-keto-prostaglandin F1α immunoreactivity were measured after injection of saline, NT69, or NT79 into mice (FIG. 8).

[3] = Body temperature lowering in mice; assay type: in vivo; settings: intraperitoneal; for effect on body temperature: 10 times the dosage of that for NT69, FIG. 5
From the text: At time “0” baseline readings were made. […] The thermistor probe was inserted 2 cm into the rectum for the measurement of body temperature.

Tail flick test = assay type: in vivo; settings: rats, 20 mg/kg intraperitoneally, FIG. 6
Description: The tail flick test also measures changes in nociceptive threshold to thermal stimulus. The rats were administered 20 mg/kg of NT79 intraperitoneally. The rat was placed in a restrainer. Water was heated to 52° C. (52-54° C.). The rat's tail was immersed in the heated water. The latency to flick the tail was recorded. A 10 sec cutoff period was used to prevent tissue damage. Antinociception was expressed as a percentage of the Maximal Possible Effect (MPE) % MPE=100×(test latency−baseline latency)/(cutoff time {10 s}−baseline latency). Analgesic compounds will result in higher % MPE.

[4] = Acetic acid-induced writhing test; assay type: in vivo; settings: rats, 20 mg/kg intraperitoneally, FIG. 7
Description: The writhing test was used to measure changes in the nociceptive threshold to a chemical stimulus. The rats were administered 20 mg/kg of NT79 intraperitoneally. The rats were also injected with 0.5 ml of a 2% (v/v) aqueous solution of acetic acid and placed individually in clear plastic containers for observation.
Behavioral Measure: The number of writhes was counted during a 60 min observation period. A writhe was defined as stretching of the hind limbs accompanied by a contraction of abdominal muscles. Analgesic compounds will result in lower number of writhes.

[5] = Table 2, read-out: hNTS2 Geometric Mean ∀ SEM (equilibrium dissociation constant Kd)
[6] = read-out: hNTS1 Geometric Mean ∀ SEM (equilibrium dissociation constant Kd)

Row | Structure (SMILES) | hNTS2 Selectivity (hNTS2; Table 2, hNTS2 over hNTS1) | Kd (hNTS2; [5]) [nM] | hNTS2 Selectivity (hNTS2; Table 4) | hNTS1 Selectivity (hNTS1) | Kd (hNTS1; [6]) [nM] | half-life [2] [h] | further results
1 | CC[C@H](C)[C@H](NC(=O)[C@@H](Cc1cccc2ccccc12)NC(=O)[C@@H]1CCCN1C(=O)[C@H](CCCNC(=N)N)NC(=O)[C@@H](N)CCCNC(=N)N)C(=O)N[C@@H](CC(C)C)C(=O)O [NT50, [D-3,1-Nal^11]NT(8-13)] |  |  |  |  |  |  | Kd (hNTS2; text, read-out: Kd at hNTS2): 17.3 nM; behavioral effect [1]: caused behavioral activation; effects on body temperature [1]: little or no effects on body temperature
2 | CC(C)C[C@H](NC(=O)[C@@H](NC(=O)[C@H](Cc1cccc2[nH]ccc12)NC(=O)[C@@H]1CCCN1C(=O)[C@H](CCCNC(=N)N)NC(=O)[C@H](N)CCCCN)C(C)(C)C)C(=O)O [NT66L, [D-Lys^8,L-neo-Trp^11,tert-Leu^12]NT(8-13)] (H-[dK]RP[Ala(indol-4-yl)][Tle]L-OH; N-terminus and C-terminus assumed) | 1.4 | 7.1 ± 0.8 | 2 | 0.7 | 10.2 ± 0.6 | > 100 | 
3 | CC(C)C[C@H](NC(=O)[C@@H](NC(=O)[C@H](Cc1cccc2[nH]ccc12)NC(=O)[C@@H]1CCCN1C(=O)[C@H](CCCNC(=N)N)NC(=O)[C@@H](N)CCCNC(=N)N)C(C)(C)C)C(=O)O [NT65, [neo-Trp^11,tert-Leu^12]NT(8-13)] (H-RRP[Ala(indol-4-yl)][Tle]L-OH; N-terminus and C-terminus assumed) | 1.9 | 0.52 ± 0.03 | 1.7 | 0.5 | 1.01 ± 0.05 |  | degradation in plasma [2]: rapidly degraded
4 | CN[C@@H](CCCNC(=N)N)C(=O)N[C@@H](CCCCN)C(=O)N1CCC[C@H]1C(=O)N[C@@H](Cc1cccc2[nH]ccc12)C(=O)N[C@H](C(=O)N[C@@H](CC(C)C)C(=O)O)C(C)(C)C [NT69L, [N-methyl-Arg^8,L-Lys^9,L-neo-Trp^11,tert-Leu^12]NT(8-13)] (H-[NMeR]KP[Ala(indol-4-yl)][Tle]L-OH; C-terminus assumed) | 1.5 | 2.1 ± 0.2 | 1.5 | 0.7 | 3.1 ± 0.4 | > 100 | plasma levels of prostaglandin (6-keto-prostaglandin F1α immunoreactivity) (6-keto-prostaglandin F1α): markedly elevated; change in body temperature (decrease) ([3]; FIG. 5): about 10 °C
5 | CC[C@H](C)[C@H](NC(=O)[C@H](Cc1cccc2[nH]ccc12)NC(=O)[C@@H]1CCCN1C(=O)[C@H](N)CCCCN)C(=O)N[C@@H](CC(C)C)C(=O)O [NT73, [D-Lys^9,L-neo-Trp^11]NT(9-13)] (H-[dK]P[Ala(indol-4-yl)]IL-OH; N-terminus and C-terminus assumed) | 0.2 | 162 ± 3 |  | 5.5 | 30 ± 3 | > 100 | 
6 | CN[C@@H](CCCNC(=N)N)C(=O)N[C@@H](CCCNC(=N)N)C(=O)N1CCC[C@H]1C(=O)N[C@H](Cc1cccc2ccccc12)C(=O)N[C@H](C(=O)N[C@@H](CC(C)C)C(=O)O)C(C)(C)C [NT79, [N-methyl-Arg^8,D-3,1-Nal^11,tert-Leu^12]NT(8-13)] (H-[NMeR]RP[d1Nal][Tle]L-OH; C-terminus assumed) | 82 |  | 82 |  |  |  | antinociceptive effect in tail flick assay (Tail flick test): demonstrated antinociceptive effects; antinociceptive effect in writhing pain model [4]: robust antinociceptive effect; Kd (hNTS2): 22 nM; selectivity for hNTS2 (hNTS2; text): 82 fold; Kd (hNTS1): 1800 nM; Kd (hNTS1; Kd at hNTS1): ~1800 nM; plasma levels of prostaglandin (6-keto-prostaglandin F1α immunoreactivity) (6-keto-prostaglandin F1α): no effect; effect on body temperature [3]: minimal effects
7 | CC[C@H](C)[C@H](NC(=O)[C@@H](Cc1cccc2ccccc12)NC(=O)[C@@H]1CCCN1C(=O)[C@H](CCCNC(=N)N)NC(=O)[C@H](CCCNC(=N)N)NC)C(=O)N[C@@H](CC(C)C)C(=O)O [NT80, [N-methyl-Arg^8,D-3,1-Nal^11]NT(8-13)] |  | 30 |  |  |  |  | Kd (hNTS2; text, read-out: Kd at hNTS2): ~30 nM; effect on body temperature [3]: minimal effects
8 | CC[C@H](C)[C@H](NC(=O)[C@H](Cc1cccc2[nH]ccc12)NC(=O)[C@@H]1CCCN1C(=O)[C@H](CCCNC(=N)N)NC(=O)[C@H](N)CCCCN)C(=O)N[C@@H](CC(C)C)C(=O)O [NT67L, [D-Lys^8,L-neo-Trp^11]NT(8-13)] (H-[dK]RP[Ala(indol-4-yl)]IL-OH; N-terminus and C-terminus assumed) | 0.5 | 1.23 ± 0.03 | — (“—“ indicates higher affinity for hNTS1) | 2.1 | 0.59 ± 0.05 | > 100 | 
